Measurements as given in US20100113465A1, “7-AZASPIRO[3.5]NONANE-7-CARBOXAMIDE COMPOUNDS” (Pfizer Inc., priority 2008, published 2010).

Tests used:
human FAAH = target: T1, human FAAH (Homo sapiens, UniProt O00519); experiment: FAAH assay, human FAAH enzyme inhibition (kinact/Ki); format: biochemical; conditions: oleamide substrate 50 μM, 30° C.; for kinact/KI: read-out: hFAAH kinact/Ki
T1 construct: made in house; host or cells: E. coli
T1 sequence (O00519 1-579): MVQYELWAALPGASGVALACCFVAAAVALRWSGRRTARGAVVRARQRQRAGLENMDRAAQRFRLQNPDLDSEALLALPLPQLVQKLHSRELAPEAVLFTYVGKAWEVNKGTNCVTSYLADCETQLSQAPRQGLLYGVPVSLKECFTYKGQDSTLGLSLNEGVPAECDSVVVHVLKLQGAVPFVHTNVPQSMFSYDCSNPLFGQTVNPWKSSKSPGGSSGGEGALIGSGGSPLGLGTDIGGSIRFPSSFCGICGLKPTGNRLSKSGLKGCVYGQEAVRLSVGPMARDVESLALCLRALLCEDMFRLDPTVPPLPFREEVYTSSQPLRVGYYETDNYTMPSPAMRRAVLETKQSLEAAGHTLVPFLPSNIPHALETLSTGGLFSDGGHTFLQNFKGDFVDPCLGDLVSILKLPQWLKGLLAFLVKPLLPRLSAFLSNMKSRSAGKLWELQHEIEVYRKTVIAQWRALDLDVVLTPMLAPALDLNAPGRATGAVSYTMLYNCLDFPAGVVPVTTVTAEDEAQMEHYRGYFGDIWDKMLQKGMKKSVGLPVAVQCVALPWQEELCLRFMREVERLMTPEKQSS
Protocol: (§1) The FAAH assay was carried out in 384-well clear polystyrene plates (Evergreen Scientific) in a total volume of 50 μl per well in a manner similar to that described by Mileni et al., Proc. Nat. Acad. Sci. 2008, 105, 12820-12824. All percents are by volume. Serial dilutions of compound were initially prepared in 100% DMSO, and then diluted two-fold into HPLC-grade H2O to give 50% DMSO. To each well, was placed the reaction mixture (40 μl) containing 1-4 nM FAAH, 50 mM NaPi, pH 7.4, 3 mM α-ketoglutarate, 0.15 mM NADH, 7.5 U/ml glutamate dehydrogenase, 2 mM ADP, 1 mM EDTA, and 0.1% Triton X-100 (The concentration shown for each component is the final concentration in the assay). To this mixture, was added 5 μl of a compound of Examples 1 to 56 at various concentrations in 50% DMSO (or 5 μl 50% DMSO for controls). This was immediately followed by the addition of 5 μl oleamide (500 μM) dissolved in 75% EtOH/25% DMSO and the reaction mixture was mixed for 1.5 min. The final concentrations of DMSO and EtOH in the assay were each 7.5%. The reactions were incubated at 30° C. and the absorbance at 340 nm was collected over a period of 90 min with readings taken in 30-second intervals using SpectraMax Plus^384 Microplate Spectrophotometer (Molecular Devices, Sunnyvale, Calif.). The human FAAH and rat FAAH used in the assay was prepared as described in the patent application WO 2006/067613 using wild-type E. coli cells transformed in St. Louis, Mo., U.S.A. The purity of the enzyme was greater than 98% based on an analysis by SDS-polyacrylamide gel electrophoresis followed by Coomassie Blue staining.
(§2) Reaction progress curves were corrected for the non-enzymatic oxidation of NADH by subtraction of absorbancies at each time point obtained from control reactions containing no FAAH enzyme. The loss of enzyme activity as a function of time is well-described by the following mathematical equation (1) for a mono-exponential decay: […]
(§3) where At represents the absorbance at time t, A0 represents the absorbance at time zero, and C represents a constant. Observed rates of enzyme inactivation (kobs) were determined from the non-linear reaction progress curves by fitting the corrected absorbancies to an equation for a mono-exponential decay using the third-party Microsoft Excel plug-in, XLfit (IDBS Limited). Secondary plots of kobs vs. inhibitor concentration were prepared from kobs values obtained from progress curves. Second-order rates for enzyme inactivation, expressed as kinact/Ki (M^−1s^−1), were calculated from the slopes from linear regression analysis of the secondary plot of kobs vs. inhibitor concentration as defined in following equation (2), where [I]<<Ki:
(§4) The concentration of substrate in the assay was equal to the Km for oleamide of 50 μM. Therefore, reported kinact/Ki values are obtained by multiplying resulting slopes by a factor of two (i.e. slope=kinact/(Ki*2)).

rat FAAH = target: T2, rat FAAH (Rattus norvegicus, UniProt P97612); experiment: FAAH assay, rat FAAH enzyme inhibition (kinact/Ki); format: biochemical; conditions: oleamide substrate 50 μM, 30° C.; for kinact/KI: read-out: rFAAH kinact/Ki
T2 construct: made in house; host or cells: E. coli
T2 sequence (P97612 1-579): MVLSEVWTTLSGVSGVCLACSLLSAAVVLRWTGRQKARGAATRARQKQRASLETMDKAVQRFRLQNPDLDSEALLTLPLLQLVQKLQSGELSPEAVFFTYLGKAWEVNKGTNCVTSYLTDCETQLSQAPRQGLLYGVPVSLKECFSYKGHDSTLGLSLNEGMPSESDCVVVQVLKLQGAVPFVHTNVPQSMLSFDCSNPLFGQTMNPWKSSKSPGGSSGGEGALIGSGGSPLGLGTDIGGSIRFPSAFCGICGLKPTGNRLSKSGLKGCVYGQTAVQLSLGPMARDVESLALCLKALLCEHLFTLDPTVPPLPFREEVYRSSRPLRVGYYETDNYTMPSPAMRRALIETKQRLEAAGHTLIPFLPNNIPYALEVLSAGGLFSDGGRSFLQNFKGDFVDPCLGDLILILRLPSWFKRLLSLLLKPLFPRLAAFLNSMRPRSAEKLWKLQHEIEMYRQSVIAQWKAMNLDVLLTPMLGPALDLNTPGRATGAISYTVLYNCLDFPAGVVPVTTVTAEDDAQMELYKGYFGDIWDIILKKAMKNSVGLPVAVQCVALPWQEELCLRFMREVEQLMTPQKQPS
Protocol: as §1, §2, §3, §4

| hFAAH kinact/Ki (human FAAH) [M⁻¹ s⁻¹] | rFAAH kinact/Ki (rat FAAH) [M⁻¹ s⁻¹] | kinact/KI (human FAAH) [M⁻¹ s⁻¹] | kinact/KI (rat FAAH) [M⁻¹ s⁻¹] | Compound |
| --- | --- | --- | --- | --- |
| 1550 | 3040 |  |  | Cc1noc(NC(=O)N2CCC3(CC(c4ccc(F)c(Cl)c4)C3)C(C)C2)c1C (single isomer, unassigned) [Example 42a, 2-(3-chloro-4-fluorophenyl)-N-(3,4-dimethylisoxazol-5-yl)-5-methyl-7-azaspiro[3.5]nonane-7-carboxamide] |
| 37.1 | 49.4 |  |  | Cc1noc(NC(=O)N2CCC3(CC(c4ccc(F)c(Cl)c4)C3)C(C)C2)c1C (single isomer, unassigned) [Example 42b, 2-(3-chloro-4-fluorophenyl)-N-(3,4-dimethylisoxazol-5-yl)-5-methyl-7-azaspiro[3.5]nonane-7-carboxamide] |
| 2760 | 3530 |  |  | Cc1noc(NC(=O)N2CCC3(CC(c4ccc(F)c(Cl)c4)C3)C(C)C2)c1C (single isomer, unassigned) [Example 42c, 2-(3-chloro-4-fluorophenyl)-N-(3,4-dimethylisoxazol-5-yl)-5-methyl-7-azaspiro[3.5]nonane-7-carboxamide] |
| 1100 | 860 |  |  | Cc1noc(NC(=O)N2CCC3(CC(c4ccc(F)c(Cl)c4)C3)C(C)C2)c1C (single isomer, unassigned) [Example 42d, 2-(3-chloro-4-fluorophenyl)-N-(3,4-dimethylisoxazol-5-yl)-5-methyl-7-azaspiro[3.5]nonane-7-carboxamide] |
|  |  | 2460 | 3940 | Cc1cccc(C2CC3(CCN(C(=O)Nc4nnc(-c5ccccc5)nn4)CC3)C2)c1 [Example 17, 2-(3-methylphenyl)-N-(6-phenyl-1,2,4,5-tetrazin-3-yl)-7-azaspiro[3.5]nonane-7-carboxamide] |
|  |  | 1100 | 656 | Cc1noc(NC(=O)N2CCC3(CC2)CC(c2cccc(-c4cccc(F)c4)c2)C3)c1C [Example 31, N-(3,4-dimethylisoxazol-5-yl)-2-(3′-fluorobiphenyl-3-yl)-7-azaspiro[3.5]nonane-7-carboxamide] |
|  |  | 1900 | 1980 | Cc1noc(NC(=O)N2CCC3(CC2)CC(c2csc(-c4cccc(F)c4)n2)C3)c1C [Example 37, N-(3,4-dimethylisoxazol-5-yl)-2-[2-(3-fluorophenyl)-1,3-thiazol-4-yl]-7-azaspiro[3.5]nonane-7-carboxamide] |
|  |  | 2670 | 4120 | Cc1noc(NC(=O)N2CCC3(CC2)CC(c2ccc(Cl)c(F)c2)C3)c1C [Example 39, 2-(4-chloro-3-fluorophenyl)-N-(3,4-dimethylisoxazol-5-yl)-7-azaspiro[3.5]nonane-7-carboxamide] |
|  |  | 354 | 405 | Cc1noc(NC(=O)N2CCC3(CC2)CC(c2ccc(F)c(Cl)c2)C3C)c1C (centres unmarked) [Example 41, 2-(3-chloro-4-fluorophenyl)-N-(3,4-dimethylisoxazol-5-yl)-1-methyl-7-azaspiro[3.5]nonane-7-carboxamide] |
|  |  | 494 | 247 | COC1(c2ccc(F)c(Cl)c2)CC2(CCN(C(=O)Nc3onc(C)c3C)CC2)C1 [Example 43, 2-(3-chloro-4-fluorophenyl)-N-(3,4-dimethylisoxazol-5-yl)-2-methoxy-7-azaspiro[3.5]nonane-7-carboxamide] |
|  |  | 945 | 1340 | Cc1noc(NC(=O)N2CCC3(CC2)CC(O)(c2ccc(F)c(Cl)c2)C3)c1C [Example 44, 2-(3-chloro-4-fluorophenyl)-N-(3,4-dimethylisoxazol-5-yl)-2-hydroxy-7-azaspiro[3.5]nonane-7-carboxamide] |

The next lines start with the compound.

| Compound | hFAAH kinact/Ki (human FAAH) [M⁻¹ s⁻¹] | rFAAH kinact/Ki (rat FAAH) [M⁻¹ s⁻¹] | kinact/KI (human FAAH) [M⁻¹ s⁻¹] | kinact/KI (rat FAAH) [M⁻¹ s⁻¹] |
| --- | --- | --- | --- | --- |
| Cc1noc(NC(=O)N2CCC3(CC2)CC(c2cccc(Oc4ccc(Br)cn4)c2)C3)c1C [Example 11, 2-{3-[(5-bromopyridin-2-yl)oxy]phenyl}-N-(3,4-dimethylisoxazol-5-yl)-7-azaspiro[3.5]nonane-7-carboxamide] |  |  | 2340 | 9990 |
| Cc1cccc(C2CC3(CCN(C(=O)Nc4nnnn4C)CC3)C2)c1 [Example 16, 2-(3-methylphenyl)-N-(1-methyl-1H-tetrazol-5-yl)-7-azaspiro[3.5]nonane-7-carboxamide] |  |  | 9660 | 3200 |
| Cc1nnc(NC(=O)N2CCC3(CC2)CC(c2cccc(OC(F)(F)F)c2)C3)o1 [Example 35, N-(5-methyl-1,3,4-oxadiazol-2-yl)-2-[3-(trifluoromethoxy)phenyl]-7-azaspiro[3.5]nonane-7-carboxamide] |  |  | 1530 | 2460 |
| Cc1noc(NC(=O)N2CCC3(CC2)CC(c2nc(-c4ccc(OC(F)(F)F)cc4)cs2)C3)c1C [Example 38, N-(3,4-dimethylisoxazol-5-yl)-2-{4-[4-(trifluoromethoxy)phenyl]-1,3-thiazol-2-yl}-7-azaspiro[3.5]nonane-7-carboxamide] |  |  | 3720 | 756 |
| Cc1noc(NC(=O)N2CCC3(CC2)CC(c2ccc(OCc4ccc(F)cc4)cc2)C3)c1C [Example 40, N-(3,4-dimethylisoxazol-5-yl)-2-{4-[(4-fluorobenzyl)oxy]phenyl}-7-azaspiro[3.5]nonane-7-carboxamide] |  |  | 3050 | 1540 |
| Cc1noc(NC(=O)N2CCC3(CC(c4ccc(F)c(Cl)c4)C3)C(C)C2)c1C (centres unmarked) [Example 42, 2-(3-chloro-4-fluorophenyl)-N-(3,4-dimethylisoxazol-5-yl)-5-methyl-7-azaspiro[3.5]nonane-7-carboxamide] |  |  | 991 | 1360 |
| O=C(Nc1nnc(-c2cccc(Cl)c2)o1)N1CCC2(CC1)CC(c1cccc(OC(F)(F)F)c1)C2 [Example 51, N-[5-(3-chlorophenyl)-1,3,4-oxadiazol-2-yl]-2-[3-(trifluoromethoxy)phenyl]-7-azaspiro[3.5]nonane-7-carboxamide] |  |  | 2520 | 5460 |
| CCn1nnnc1NC(=O)N1CCC2(CC1)CC(c1cccc(OC(F)(F)F)c1)C2 [Example 52, N-(1-ethyl-1H-tetrazol-5-yl)-2-[3-(trifluoromethoxy)phenyl]-7-azaspiro[3.5]nonane-7-carboxamide] |  |  | 6940 | 3420 |
